Measured values published in the OligoGym collection.
Where “and” joins values, the source holds several entries; their conditions need not be identical. Identical values can stand only once. After the bases stand the sugars from the 5' end (letter, count) and the backbone: PS all phosphorothioate, else s phosphorothioate and o phosphodiester by linkage. Methylation of C is not given here. e = 2'-O-(2-methoxyethyl) (MOE); k = constrained ethyl (cEt); d = 2'-deoxy (DNA)

The sequences below were run against IRF4. Details: ASO, MM.1R, 0.0625 µM.
In the case of CGCAAGTCTACAGCCC (sugars k3 d10 k3, PS), the target mRNA inhibition is reported as 0%. Work on CGCATTGCTAGATTCT (sugars k3 d10 k3, PS) yielded a target mRNA inhibition of -9%.

Same assay, conditions: ASO, MM.1R, 0.074 µM
For CGCAAGTCTACAGCCC (sugars k3 d10 k3, PS), the target mRNA inhibition was -7%. With “CTATAGTGTTCCAGGA (sugars kkdddddddddkdkdk, PS)” the target mRNA inhibition was 19%.

Same assay, conditions: ASO, MM.1R, 0.222 µM
CGCAAGTCTACAGCCC (sugars k3 d10 k3, PS) was tested, and the target mRNA inhibition was -9%. Work on “CTATAGTGTTCCAGGA (sugars kkdddddddddkdkdk, PS)” yielded a target mRNA inhibition of 23%.

Same assay, conditions: ASO, MM.1R, 0.25 µM
CGCAAGTCTACAGCCC (sugars k3 d10 k3, PS) gave a target mRNA inhibition of 1%. CGCATTGCTAGATTCT (sugars k3 d10 k3, PS) showed a target mRNA inhibition of 4%.

Same assay, conditions: ASO, MM.1R, 0.666 µM
In the case of CGCAAGTCTACAGCCC (sugars k3 d10 k3, PS), the target mRNA inhibition is reported as -9%. “CTATAGTGTTCCAGGA (sugars kkdddddddddkdkdk, PS)” showed a target mRNA inhibition of 42%.

Same assay, conditions: ASO, MM.1R, 1 µM
Sequence CCACACAAGTCTTAGG (sugars k3 d10 k3, PS) has a target mRNA inhibition of 15%. CCACATACCTGAAACG (sugars k3 d10 k3, PS) was tested, and the target mRNA inhibition was -9%. CCAGCTTCGGTCGAGG (sugars k3 d10 k3, PS) gave a target mRNA inhibition of -5%. With CCCATCGAATCTGCCC (sugars k3 d10 k3, PS) the target mRNA inhibition was -24%. Sequence CCCTCATCACCGAACA (sugars k3 d10 k3, PS) has a target mRNA inhibition of -25%. With CCCTTGCTGCAAATCC (sugars k3 d10 k3, PS) the target mRNA inhibition was -4%. CCGCAGCCCAAAGGCT (sugars k3 d10 k3, PS) showed a target mRNA inhibition of 4%. Work on CCTATCACTGCCAAGT (sugars k3 d10 k3, PS) yielded a target mRNA inhibition of -3%. Work on CCTATGCTGAACCCCA (sugars k3 d10 k3, PS) yielded a target mRNA inhibition of -12%. With “CCTCAGTTTGTGAAGC (sugars e1 k2 d9 k2 e2, PS)” the target mRNA inhibition was 11%. “CCTCAGTTTGTGAAGC (sugars k3 d9 k3 e1, PS)” gave a target mRNA inhibition of 2%. CCTCATTCACAACTAG (sugars k3 d10 k3, PS) was tested, and the target mRNA inhibition was 5%. Work on CCTGATGCCTCCGCCG (sugars k3 d10 k3, PS) yielded a target mRNA inhibition of 6%. Work on CCTTAAGCTATTTGGT (sugars k3 d10 k3, PS) yielded a target mRNA inhibition of -786%. Work on CCTTCAGATTTACACC (sugars k3 d10 k3, PS) yielded a target mRNA inhibition of -9%. CGAAAAGACTGGAGTG (sugars k3 d10 k3, PS) showed a target mRNA inhibition of 26%. CGCAAGTCTACAGCCC (sugars k3 d10 k3, PS) showed a target mRNA inhibition of 6%. CGCATTGCTAGATTCT (sugars k3 d10 k3, PS) was tested, and the target mRNA inhibition was 37% and 27%. Sequence CGCCAGCGGGTGAGCA (sugars k3 d10 k3, PS) has a target mRNA inhibition of 19%. CGCCCAGGACCCGGCT (sugars k3 d10 k3, PS) gave a target mRNA inhibition of -1%. CGCCCATGAGTTGAAA (sugars k3 d10 k3, PS) gave a target mRNA inhibition of 13%. Sequence CGCTTGTGGATATACA (sugars k3 d10 k3, PS) has a target mRNA inhibition of 0%. In the case of CGGTTAGCTCATCCCG (sugars k3 d10 k3, PS), the target mRNA inhibition is reported as 5%. For CGTAGTCACGCAATGG (sugars k3 d10 k3, PS), the target mRNA inhibition was 15%. In the case of “CGTGTGCTTGCCAAGC (sugars k2 d9 e3 k2, PS)”, the target mRNA inhibition is reported as 60% and 66%. For “CGTGTGCTTGCCAAGC (sugars kddddddddddkekek, PS)”, the target mRNA inhibition was 30% and 32%. “CGTGTGCTTGCCAAGC (sugars kkdddddddddekeke, PS)” was tested, and the target mRNA inhibition was 47% and 36%. With CTAAAGTCCCATCGAA (sugars k3 d10 k3, PS) the target mRNA inhibition was -2%. Work on “CTATAGTGTTCCAGGA (sugars kdddddddddkekeke, PS)” yielded a target mRNA inhibition of 12%. With “CTATAGTGTTCCAGGA (sugars kkdddddddddekeke, PS)” the target mRNA inhibition was 48%. “CTATAGTGTTCCAGGA (sugars kkdddddddddkdkdk, PS)” was tested, and the target mRNA inhibition was 49%. “CTCTATAGTGTTCCAG (sugars kdddddddddkekeke, PS)” showed a target mRNA inhibition of 11%.

Same assay, conditions: ASO, MM.1R, 2 µM
CGCAAGTCTACAGCCC (sugars k3 d10 k3, PS) was tested, and the target mRNA inhibition was 8%. Work on “CTATAGTGTTCCAGGA (sugars kkdddddddddkdkdk, PS)” yielded a target mRNA inhibition of 68%.

Same assay, conditions: ASO, MM.1R, 4 µM
CGCAAGTCTACAGCCC (sugars k3 d10 k3, PS) showed a target mRNA inhibition of 12%. CGCATTGCTAGATTCT (sugars k3 d10 k3, PS) was tested, and the target mRNA inhibition was 55%.

Same assay, conditions: ASO, SK-MEL-28, 4 µM
With CCAACGACAGCATAGC (sugars k3 d10 k3, PS) the target mRNA inhibition was 76%. For CCAAGGATAACCTGAA (sugars k3 d10 k3, PS), the target mRNA inhibition was 44%. Work on CCAATACATATCCATG (sugars k3 d10 k3, PS) yielded a target mRNA inhibition of 60%. CCACATTAGCAATTAG (sugars k3 d10 k3, PS) showed a target mRNA inhibition of 19%. For CCACTGGCGGAGCTTC (sugars k3 d10 k3, PS), the target mRNA inhibition was 36%. For CCAGGAAACCGCTGGC (sugars k3 d10 k3, PS), the target mRNA inhibition was 38%. CCAGGTTAAACAGGAA (sugars k3 d10 k3, PS) gave a target mRNA inhibition of 6%. With CCATAGAGCCAGAGCA (sugars k3 d10 k3, PS) the target mRNA inhibition was 64%. CCATGGGAGATCCGGC (sugars k3 d10 k3, PS) gave a target mRNA inhibition of 54%. In the case of CCATTTAATCTGTCTA (sugars k3 d10 k3, PS), the target mRNA inhibition is reported as 28%. CCCAAAATACTTTGCA (sugars k3 d10 k3, PS) was tested, and the target mRNA inhibition was 64%. With CCCAAAGGGCATCCTC (sugars k3 d10 k3, PS) the target mRNA inhibition was 41%. CCCAAGATCGAGCGGT (sugars k3 d10 k3, PS) was tested, and the target mRNA inhibition was 28%. CCCAAGCCTTGAAGAG (sugars k4 d8 k4, PS) gave a target mRNA inhibition of 22%. For CCCCAGGGCCCTCGGT (sugars k3 d10 k3, PS), the target mRNA inhibition was 18%. Sequence CCCCGTATCCCCGTAT (sugars k3 d10 k3, PS) has a target mRNA inhibition of 45%. For CCCGACACGCGCCGCT (sugars k3 d10 k3, PS), the target mRNA inhibition was 12%. Sequence CCCTAAGTTTAATTTA (sugars k3 d10 k3, PS) has a target mRNA inhibition of -3%. With CCCTAGGTCATACCCT (sugars k3 d10 k3, PS) the target mRNA inhibition was 57%. With CCCTTATTAGACTGAC (sugars k3 d10 k3, PS) the target mRNA inhibition was 67%. Sequence CCGCACTCACTCGCAG (sugars k3 d10 k3, PS) has a target mRNA inhibition of 8%. With CCGCAGAGAGCTAGCA (sugars k3 d10 k3, PS) the target mRNA inhibition was -6%. With CCGCGCTCATGCCGAA (sugars k3 d10 k3, PS) the target mRNA inhibition was 45%. Sequence CCGCTGAGAGCCGAGG (sugars k3 d10 k3, PS) has a target mRNA inhibition of -4%. With CCGGACCCCGGAGCAG (sugars k3 d10 k3, PS) the target mRNA inhibition was -24%. Work on CCGTCCGCGCCCGCGC (sugars k3 d10 k3, PS) yielded a target mRNA inhibition of 61%. CCGTGGTGAGCAAACG (sugars k3 d10 k3, PS) showed a target mRNA inhibition of 32%. In the case of CCTAAGTACCTGAAAT (sugars k3 d10 k3, PS), the target mRNA inhibition is reported as 11%. Sequence CCTAATCTACAACAAA (sugars k3 d10 k3, PS) has a target mRNA inhibition of 15%. CCTCAAAGTCATTGCT (sugars k3 d10 k3, PS) gave a target mRNA inhibition of 21%. With CCTCACTACAGAGCCC (sugars k3 d10 k3, PS) the target mRNA inhibition was 24%. Work on CCTCAGTTTGTGAAGC (sugars k3 d10 k3, PS) yielded a target mRNA inhibition of 69%. CCTCCATTCTAACAGA (sugars k3 d10 k3, PS) showed a target mRNA inhibition of -18%. CCTCTGAGCAGAACGA (sugars k3 d10 k3, PS) gave a target mRNA inhibition of 76%. In the case of CCTGAGACAGACTTCC (sugars k3 d10 k3, PS), the target mRNA inhibition is reported as 55%. Work on CCTGTAGTATGAGAAA (sugars k3 d10 k3, PS) yielded a target mRNA inhibition of 57%. CCTGTGGTGGAACTCT (sugars k3 d10 k3, PS) was tested, and the target mRNA inhibition was 27%. Work on CCTTAACCAATCCCAA (sugars k3 d10 k3, PS) yielded a target mRNA inhibition of 43%. CGAAGAATTTTAGCAT (sugars k3 d10 k3, PS) was tested, and the target mRNA inhibition was 58%. Work on CGAATAGGACCCCTAT (sugars k3 d10 k3, PS) yielded a target mRNA inhibition of 9%. CGACAACTTTCCTGAA (sugars k3 d10 k3, PS) showed a target mRNA inhibition of 21%. CGACAGTCCGGTTAGC (sugars k3 d10 k3, PS) was tested, and the target mRNA inhibition was 11%. CGCAAGTCTACAGCCC (sugars k3 d10 k3, PS) was tested, and the target mRNA inhibition was 59%. CGCCACATCAGCAGAC (sugars k3 d10 k3, PS) gave a target mRNA inhibition of 12%. Sequence CGCCACCTGATGCCTC (sugars k3 d10 k3, PS) has a target mRNA inhibition of 30%. CGCCCTGGACTCGGAG (sugars k3 d10 k3, PS) was tested, and the target mRNA inhibition was 36%. CGCGGTTGTAGTCCTG (sugars k3 d10 k3, PS) showed a target mRNA inhibition of 44%. CGCTACAGCTTCTGCA (sugars k3 d10 k3, PS) was tested, and the target mRNA inhibition was 20%. In the case of CGCTCAAAGACCAGCT (sugars k3 d10 k3, PS), the target mRNA inhibition is reported as 56%. For CGCTCAACCAGTTCCT (sugars k3 d10 k3, PS), the target mRNA inhibition was 28%. With CGCTCAGGACTCAGGG (sugars k3 d10 k3, PS) the target mRNA inhibition was 55%. In the case of CGGAACTTTCCTTTAA (sugars k3 d10 k3, PS), the target mRNA inhibition is reported as 37%. CGGAAGAAGGCACCTT (sugars k3 d10 k3, PS) showed a target mRNA inhibition of -12%. CGGACGCACGGAGAGG (sugars k3 d10 k3, PS) showed a target mRNA inhibition of 28%. CGTGGAAACGAGAACG (sugars k3 d10 k3, PS) was tested, and the target mRNA inhibition was 29%. CTAAATTCTAGTTTGC (sugars k3 d10 k3, PS) gave a target mRNA inhibition of 21%. For CTAAGGAGACAGTAAC (sugars k3 d10 k3, PS), the target mRNA inhibition was 29%. For CTAATCCACAATCAGC (sugars k3 d10 k3, PS), the target mRNA inhibition was 45%. CTAATCTACAACAAAT (sugars k3 d10 k3, PS) showed a target mRNA inhibition of 23%. For CTACAAAATGCCTCCA (sugars k3 d10 k3, PS), the target mRNA inhibition was 42%. With CTACAAAGAGCACTGC (sugars k3 d10 k3, PS) the target mRNA inhibition was 53%. Sequence CTACACCTACACAGGC (sugars k3 d10 k3, PS) has a target mRNA inhibition of 16%. Sequence CTACAGATCTCAGCAA (sugars k3 d10 k3, PS) has a target mRNA inhibition of 18%. Sequence CTACATCTACTCCAGA (sugars k3 d10 k3, PS) has a target mRNA inhibition of 22%. With CTACATTTCTTATGCA (sugars k3 d10 k3, PS) the target mRNA inhibition was 39%. With CTAGAGGTGCCTTCTT (sugars k3 d10 k3, PS) the target mRNA inhibition was 26%. CTAGATAGCATTCTTA (sugars k3 d10 k3, PS) gave a target mRNA inhibition of 39%. CTATGCTAGAGAACAT (sugars k3 d10 k3, PS) showed a target mRNA inhibition of 23%. Sequence CTCAGCAAGTGTCTTC (sugars k3 d10 k3, PS) has a target mRNA inhibition of 45%. CTCATAGGTGTACACG (sugars k3 d10 k3, PS) gave a target mRNA inhibition of 59%. Work on CTCGAGGCCAACGACT (sugars k3 d10 k3, PS) yielded a target mRNA inhibition of 1%. Sequence CTCTACTGGAGTCAAG (sugars k3 d10 k3, PS) has a target mRNA inhibition of 25%. CTCTATAGTGTTCCAG (sugars k3 d10 k3, PS) gave a target mRNA inhibition of 66%. In the case of CTCTGACAAGAACTGC (sugars k3 d10 k3, PS), the target mRNA inhibition is reported as 30%.
